Like-named read-outs stand apart in the source and are kept apart here. Blank lines part the entries; values can stand above or below the compound they belong to.
Legend:
human recombinant APAO [1] = target: T1, human recombinant APAO (Homo sapiens, UniProt Q6QHF9); test: Substrate kinetics with human recombinant APAO (HPLC of reaction products); assay type: biochemical; settings: for Km / Vmax / kcat: 100 mM Glycine-NaOH pH 9.5, 5 mM DTT
T1 construct: made in house

SMOX = SMOX (Homo sapiens, UniProt Q9NWM0); test: Inhibition of SMOX (Ki, peroxidase-coupled fluorescence, Spm as substrate)
SMOX, sequence (Q9NWM0 whole entry): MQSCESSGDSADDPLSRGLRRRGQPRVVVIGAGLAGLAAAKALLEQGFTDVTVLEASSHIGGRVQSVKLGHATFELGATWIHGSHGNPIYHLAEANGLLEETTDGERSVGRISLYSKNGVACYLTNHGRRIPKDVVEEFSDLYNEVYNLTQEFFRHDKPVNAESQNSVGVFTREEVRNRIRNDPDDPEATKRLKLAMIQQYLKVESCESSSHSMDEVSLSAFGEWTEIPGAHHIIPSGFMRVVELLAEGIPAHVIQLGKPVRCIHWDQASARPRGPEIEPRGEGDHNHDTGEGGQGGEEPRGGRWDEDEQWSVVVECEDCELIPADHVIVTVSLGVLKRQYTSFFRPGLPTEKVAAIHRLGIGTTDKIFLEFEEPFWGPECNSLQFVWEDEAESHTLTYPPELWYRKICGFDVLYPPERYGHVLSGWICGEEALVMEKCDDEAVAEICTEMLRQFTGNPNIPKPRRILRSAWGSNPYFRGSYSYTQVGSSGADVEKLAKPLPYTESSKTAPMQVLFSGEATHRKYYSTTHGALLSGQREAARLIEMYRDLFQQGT
Method: Reaction mixtures contained 40 units/ml horseradish peroxidase (Roche), 1 mM homovanillic acid in 100 mM Glycine-NaOH at pH 9.0 supplemented with 40 ng of SMOX. […] Dilutions of fresh H2O2 were used as standard.

human recombinant APAO [2] = target: T1, human recombinant APAO; settings: cited from earlier work
Fms1 [3] = target: T2, Fms1 (Saccharomyces cerevisiae, UniProt P50264); test: Fms1 cleavage of (R)- or (S)-MeSpd with or without aromatic aldehyde (E1/E2 velocities); assay type: biochemical, yeast; set-up: made in house
T2 sequence (P50264 whole entry): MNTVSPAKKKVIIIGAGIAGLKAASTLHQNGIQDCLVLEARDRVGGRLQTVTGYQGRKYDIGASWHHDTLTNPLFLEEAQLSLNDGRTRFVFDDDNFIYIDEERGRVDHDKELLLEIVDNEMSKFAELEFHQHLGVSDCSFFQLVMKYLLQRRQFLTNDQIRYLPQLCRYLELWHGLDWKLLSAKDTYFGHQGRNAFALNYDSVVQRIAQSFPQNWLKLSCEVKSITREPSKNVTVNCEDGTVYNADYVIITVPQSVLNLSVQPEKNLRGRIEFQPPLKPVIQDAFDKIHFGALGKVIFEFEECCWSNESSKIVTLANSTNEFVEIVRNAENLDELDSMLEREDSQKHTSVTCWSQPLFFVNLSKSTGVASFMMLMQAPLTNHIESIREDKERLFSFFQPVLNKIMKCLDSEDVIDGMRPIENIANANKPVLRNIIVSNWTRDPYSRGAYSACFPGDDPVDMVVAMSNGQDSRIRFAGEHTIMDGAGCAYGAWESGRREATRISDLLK
Method: Supplementary Table 3 The effects of increasing aromatic aldehyde concentration for the regioselectivity of Fms1 using (R)-MeSpd or (S)-MeSpd as a substrate.
The reactions were carried out in triplicate at pH 9.0 in 100 mM Glycine-NaOH at +25°C with the fixed 1 or 4 mM MeSpd supplemented with increasing concentration 50 or 500 µM of tested aldehyde. Recombinant Fms1 was 1.6 µg/reaction and the incubation time from 15 to 30 minutes.
Linearity of reaction was monitored by using T1/2 controls, i.e. samples that have been incubated for 7.5 to 15 min (half of the reaction time of an ordinary sample). E1 cleavage was monitored by HPLC by measuring Put formation and E2 cleavage by determining butane-1,3-diamine content.
Substrate (R)-MeSpd (S)-MeSpd […]

Fms1 [4] = target: T2, Fms1; test: as above; assay type: biochemical, yeast; set-up: made in house; remark: listed apart in the source
Fms1 [5] = target: T2, Fms1; test: Substrate kinetics with recombinant Fms1 (HPLC of reaction products); settings: for Vmax / kcat: Supplementary Table 1, pH 9.0, 100 mM Glycine-NaOH, 25°C, Put formation;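 on all read-outs here: recombinant polyamine oxidases incubated with substrate, product amines (putrescine, 1,3-diaminopropane or butane-1,3-diamine) quantified by HPLC after post-column o-phthalaldehyde derivatization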
Method: (§1) HPLC with post-column o-phthalaldehyde-derivatization was used to determine the concentrations of the reaction products Put and 1,3-diaminopropane (DAP) or butane-1,3-diamine respectively as described in [30]. Fms1 activity was determined essentially as described for human recombinant APAO, but reactions were carried out in 100 mM Glycine-NaOH buffer at pH 9.0 in a water bath at +25°C [29, 30].
The reactions were carried out in 1 triplicate at pH 9.0 in 100 mM Glycine-NaOH at +25°C.
values for N -Ac-MeSpd enantiomers were determined by using substrate concentrations of 25, 50,
for Rac-MeSpd 30 min, (R)-MeSpd 20 min and (S)-MeSpd 40 minutes.
The reactions were carried out in triplicate at pH 9.0 in 100 mM Glycine-NaOH at +25°C.
values for MeSpd enantiomers were determined by using substrate concentrations of 100, 300, 600,
1000, 2000 and 4000 M. Recombinant Fms1 was 3.8 g/reaction and the incubation time 60
incubated for 30 min (half of the reaction time of an ordinary sample). E1 cleavage was monitored

Fms1 [6] = target: T2, Fms1; set-up: made in house; method as in PMID 21067138; settings: cited from earlier work
Fms1 [7] = target: T2, Fms1; test: Fms1 cleavage of 1 mM Spd supplemented with aldehydes (E1/E2 regioselectivity); assay type: biochemical, yeast; set-up: made in house; settings: for E1 cleavage (Put) kcat / E2 cleavage (DAP) kcat / Ratio of E1/E2: fixed 1 mM Spd, aldehyde 25-1000 μM, pH 9.0, 25°C; for effect on cleavage site balance of Spd: Spd plus aldehyde;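 on all read-outs here: recombinant yeast Fms1 reactions in Glycine-NaOH buffer, with products Put and DAP quantified by HPLC using post-column o-phthalaldehyde derivatization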
Method: as §1

[8] = Ki (best-fit value, noncompetitive inhibition), GraphPad Prism global fit, supplement
[9] = Ki, non-competitive fit, 25, 50 or 100 µM Spm, pH 9.0, 37°C
[10] = aldehyde A13 50 µM, first of two lines (1 or 4 mM MeSpd, not stated which)
[11] = aldehyde A12 50 µM, first of two lines (1 or 4 mM MeSpd, not stated which)
[12] = aldehyde A12 50 µM, second of two lines (1 or 4 mM MeSpd, not stated which)
[13] = aldehyde A12 500 µM, first of two lines (1 or 4 mM MeSpd, not stated which)
[14] = aldehyde A12 500 µM, second of two lines (1 or 4 mM MeSpd, not stated which)
[15] = aldehyde A13 50 µM, second of two lines (1 or 4 mM MeSpd, not stated which)
[16] = aldehyde A13 500 µM, first of two lines (1 or 4 mM MeSpd, not stated which)
[17] = aldehyde A13 500 µM, second of two lines (1 or 4 mM MeSpd, not stated which)

T1 sequence (Q6QHF9 whole entry): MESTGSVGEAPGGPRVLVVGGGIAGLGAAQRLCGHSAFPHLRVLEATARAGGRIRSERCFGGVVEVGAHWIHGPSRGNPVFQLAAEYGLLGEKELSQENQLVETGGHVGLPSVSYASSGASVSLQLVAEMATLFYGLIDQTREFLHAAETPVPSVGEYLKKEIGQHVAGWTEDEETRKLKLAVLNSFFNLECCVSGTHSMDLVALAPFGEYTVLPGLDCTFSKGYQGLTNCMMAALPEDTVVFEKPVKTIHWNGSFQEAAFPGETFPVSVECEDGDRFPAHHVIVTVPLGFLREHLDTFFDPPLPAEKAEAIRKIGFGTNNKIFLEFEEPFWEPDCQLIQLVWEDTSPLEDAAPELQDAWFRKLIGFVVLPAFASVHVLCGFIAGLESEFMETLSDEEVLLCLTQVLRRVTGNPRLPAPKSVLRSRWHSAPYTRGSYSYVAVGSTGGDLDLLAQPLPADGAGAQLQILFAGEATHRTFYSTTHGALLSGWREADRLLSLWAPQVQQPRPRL

- Km (human recombinant APAO [1]): 3.6 ± 0.6 µM
- Vmax (human recombinant APAO [1]): 5.59 ± 0.60 µmol/min/mg
- kcat (human recombinant APAO [1]): 5.2 ± 0.6 s⁻¹
- Ki (SMOX; [8]): 1280 µM
- Ki (SMOX; [9]): 1280 ± 111 µM
Structure (SMILES): C[C@H](CCNCCCCN)NC(=O)c1ccncc1 [P4-(R)-MeSpd]

- E2 cleavage velocity (Fms1 [3]; Without aldehyde, 1 mM MeSpd): 4.3 ± 0.9 nmol/mg/min
- E1 cleavage velocity (Fms1 [3]; Without aldehyde, 4 mM MeSpd): 12.5 ± 0.0 nmol/mg/min
- E2 cleavage velocity (Fms1 [3]; Without aldehyde, 4 mM MeSpd): 5.6 ± 0.4 nmol/mg/min
- E1 cleavage velocity (Fms1 [3]; [10]): 19.1 ± 1.0 nmol/mg/min
- E1 cleavage velocity (Fms1 [4]; Without aldehyde, 1 mM MeSpd): 9.5 ± 0.1 nmol/mg/min
- E1 cleavage velocity (Fms1 [4]; [11]): 10.5 ± 1.1 nmol/mg/min
- E2 cleavage velocity (Fms1 [4]; [11]): 33.7 ± 4.8 nmol/mg/min
- E1 cleavage velocity (Fms1 [4]; [12]): 14.0 ± 0.9 nmol/mg/min
- E2 cleavage velocity (Fms1 [4]; [12]): 31.8 ± 4.3 nmol/mg/min
- E1 cleavage velocity (Fms1 [4]; [13]): 12.7 ± 1.6 nmol/mg/min
- E2 cleavage velocity (Fms1 [4]; [13]): 186 ± 24 nmol/mg/min
- E1 cleavage velocity (Fms1 [4]; [14]): 14.4 ± 0.8 nmol/mg/min
- E2 cleavage velocity (Fms1 [4]; [14]): 216 ± 31 nmol/mg/min
- E2 cleavage velocity (Fms1 [4]; [10]): 10.3 ± 3.1 nmol/mg/min
- E1 cleavage velocity (Fms1 [4]; [15]): 19.1 ± 0.4 nmol/mg/min
- E2 cleavage velocity (Fms1 [4]; [15]): 9.6 ± 2.2 nmol/mg/min
- E1 cleavage velocity (Fms1 [4]; [16]): 72.8 ± 2.3 nmol/mg/min
- E2 cleavage velocity (Fms1 [4]; [16]): 41.5 ± 3.4 nmol/mg/min
- E1 cleavage velocity (Fms1 [4]; [17]): 63.1 ± 1.0 nmol/mg/min
- E2 cleavage velocity (Fms1 [4]; [17]): 39.5 ± 2.1 nmol/mg/min
- Km (Fms1 [5]; Fms1, text summary of Supplementary Table S2): > 500 µM
Structure (SMILES): C[C@@H](N)CCNCCCCN [(R)-MeSpd, 1,8-diamino-5-azanonane]
- specificity constant ratio (R)/(S) of benzaldehyde Schiff base derivatives (human recombinant APAO [2]; benzaldehyde Schiff base of MeSpd): eight

Structure (SMILES): CC(=O)NCCCNCCCCNCCCN [N^1-AcSpm]
- kcat (Fms1 [6]): 15.1 ± 0.4 s⁻¹

- E1 cleavage (Put) kcat (Fms1 [7]): 0.31 ± 0.01 s⁻¹
- E2 cleavage (DAP) kcat (Fms1 [7]): 0.47 ± 0.01 s⁻¹
- Ratio of E1/E2 (Fms1 [7]): 0.22
Structure (SMILES): O=Cc1cccc(O)c1 [C00003]

Structure (SMILES): O=Cc1cccc(O)c1 [A6]
- effect on cleavage site balance of Spd (Fms1 [7]): shifted the balance towards E2 cleavage site

Structure (SMILES): CC(=O)N[C@H](C)CCNCCCCN [N^1-Ac-(R)-MeSpd]
- specificity constant ratio (R)-enantiomer/(S)-enantiomer (human recombinant APAO [1]; APAO, ratio of kcat/Km): 13
- Km (human recombinant APAO [2]): 95 µM
- kcat (human recombinant APAO [2]): 9 s⁻¹
- Vmax (Fms1 [5]): 61 ± 4 nmol/min/mg
- kcat (Fms1 [5]): 0.06 ± 0.00 s⁻¹

- Km (human recombinant APAO [1]): 0.8 ± 0.2 µM
- Vmax (human recombinant APAO [1]): 0.02 ± 0.00 µmol/min/mg
- kcat (human recombinant APAO [1]): 0.01 ± 0.00 s⁻¹
- Ki (SMOX; [8]): 1020 µM
- Ki (SMOX; [9]): 1020 ± 79 µM
Structure (SMILES): C[C@@H](CCNCCCCN)NC(=O)c1ccncc1 [P4-(S)-MeSpd]

- Vmax (Fms1 [5]): 50 ± 3 nmol/min/mg
- kcat (Fms1 [5]): 0.05 ± 0.00 s⁻¹
Structure (SMILES): CC(=O)NC(C)CCNCCCCN (centres unmarked) [N1-Ac-MeSpd, N8-Acetyl-1,8-diamino-5-azanonane]

- E1 cleavage (Put) kcat (Fms1 [7]): 1.13 ± 0.03 s⁻¹
Structure (SMILES): Cc1ncc(CO)c(C=O)c1O [C00008]

Structure (SMILES): COc1ccc(C=O)cc1 [C00009]
- E1 cleavage (Put) kcat (Fms1 [7]): 0.13 ± 0.00 s⁻¹
- E2 cleavage (DAP) kcat (Fms1 [7]): 0.22 ± 0.00 s⁻¹

Structure (SMILES): COc1ccc(C=O)cc1 [A4]
- effect on cleavage site balance of Spd (Fms1 [7]): shifted the balance towards E2 cleavage site

Structure (SMILES): NCCCCNCCCN [Spd, spermidine, reference compound]
- Ratio of E1/E2 (Fms1 [5]; substrate alone, no aldehyde, pH 9.0, 25°C): 7.5

- E1 cleavage (Put) kcat (Fms1 [7]): 7.4 ± 0.2 s⁻¹
- E2 cleavage (DAP) kcat (Fms1 [7]): 0.19 ± 0.01 s⁻¹
- Ratio of E1/E2 (Fms1 [7]): 12.9
Structure (SMILES): O=Cc1ccncc1 [C00005]

- E1 cleavage (Put) kcat (Fms1 [7]): 0.11 ± 0.00 s⁻¹
- E2 cleavage (DAP) kcat (Fms1 [7]): 0.03 ± 0.00 s⁻¹
- Ratio of E1/E2 (Fms1 [7]): 118
Structure (SMILES): O=Cc1ccc(O)cc1 [C00004]

Structure (SMILES): O=Cc1ccccn1 [A18]
- effect on cleavage site balance of Spd (Fms1 [7]): shifted the balance towards E2 cleavage site

Source: paper PMC6131205, “Controlling the regioselectivity and stereospecificity of FAD-dependent polyamine oxidases with the use of amine-attached guide molecules as conformational modulators” (Bioscience Reports, 2018)
